Data taken from patent publication US11903917B2, “MEK-inhibitor for the treatment of viral and bacterial infections” (priority 2017, dated 2024).
Where “and” joins values, the source holds several entries; their conditions need not be identical. Equal values may be shown once.

What was measured:
[1] = Pharmacokinetics, drug in plasma after i.v. or per os application; format: in vivo, NMRI mice
Protocol: Blood was collected at 15 min, 30 min, 1 h, 2 h, 4 h, 6 h, 8 h and 24 h (test day 2) after administration and plasma was analysed for the presence of the drug. […] Blood was collected at 15 min, 30 min, 1 h, 2 h, 4 h, 6 h, 8 h and 24 h (test day 2) after administration and plasma was analysed for the presence of the drug. Each data point represents the mean value of three plasma samples. Graphpad Prism 7 software was used to illustrate both figures.
34.88 mg PD-0184264 were dissolved in 0.075 ml DMSO and further diluted with 0.225 ml Cremophor EL/2.7 ml PBS. […] 81.0 mg PD-0184264 were dissolved in 0.2 ml DMSO/0.6 ml Cremophor EL/3.2 ml PBS.
Eight week old male NMRI mice (Charles River Laboratories, Germany) with a body weight of 23.9-36.5 g at administration were used for pharmacokinetic studies. The animals were normally fed. Drinking water was available ad libitum.
Experiments were performed at LPT GmbH (Hamburg, Germany). Sufficient whole blood—taken under isoflurane anaesthesia—was collected to obtain at least 2×100 μl Li-Heparin plasma of 3 animals per group and time-point at the following times: 0 (predose), 15 min, 30 min, 1 h, 2 h, 4 h, 6 h, 8 h and 24 h (test day 2) after administration. The whole blood samples were instantly cooled using an Iso-Therm-Rack system (Eppendorf AG, Germany) until centrifugation within 0.5 hours after withdrawal. Immediately after centrifugation, the samples were stored at −20° C. until further analysis. Plasma analysis was performed using standard procedures at Prolytic GmbH (Frankfurt, Germany).
Drugs were either administrated using a single dosing on test day 1 by oral gavage or by Intravenous bolus injection into a tail vein. The Injection speed was 15 s/dose with an administration volume of 200 μl.

[2] = tested on: influenza A virus strain RB1 [A/Regensburg/D6/09 (H1N1 pdm09)]; experiment: Progeny virus inhibition assay in A549 cells; format: cell-based
[3] = tested on: Streptococcus pneumoniae strain TIGR4 (serotype 4); experiment: Over-night growth of Streptococcus pneumoniae (OD600, bacterial titers); format: cell-based; details: over night treatment
Protocol: (§1) Similar to S. aureus, the majority of Streptococcus pneumoniae strains express eukaryotic-like serine/threonine kinases, such as PknB, which are highly conserved between different genera. Additionally, these kinases share high homology to cellular MAP kinases (e.g. ERK, JNK, p38). […] Thus, the impact of PD-0184264 on different strains of Streptococci pneumonia was analyzed. Streptococcus pneumoniae strains can be divided into different serotypes, which differ in their virulence and overall pathogenicity. To test for a serotype- or strain-independent effect, we used the encapsulated strains D39 and TIGR4, which are both virulent, but belong to different serotypes. […] Then, the OD600 was measured again (Results shown in FIG. 11A) and dilution series were objected to BHI agar plates to determine bacterial titers (Results shown in FIG. 11B).

[4] = tested on: Streptococcus pneumoniae strain D39 wt (serotype 2); experiment: as above; format: cell-based; details: over night treatment
Protocol: as §1

S. aureus strain 6850 = experiment: Bacterial growth under heat stress (42° C., 6 h) after inhibitor treatment; format: cell-based, Staphylococcus aureus; details: 20 μM over night, then 42° C. for 6 h, strain 6850, vs solvent
Protocol: (§2) As the kinase is known to play an important role in bacterial stress resistance, bacterial growth under heat stress was monitored after treatment of the bacteria with the inhibitor PD-0184264. S. aureus strain 6850 and MRSA strain USA300 were treated over night with either solvent or 20 μM of the PD-0184264. The next day subcultures with the same amount of bacteria were prepared (confirmed by OD600 and plating on BHI agar) and further incubated at 42° C. for 6 h. Bacterial titers were then calculated via plating of serial dilutions on BHI agar plates. […] This is both observed for the methicillin-sensitive strain 6850 (black bars) as well as for the MRSA strain USA300 (grey bars). Impaired stress tolerance in the presence of the inhibitor is another indication that PD-0184264 directly targets the kinase PknB, which is an important mediator of stress resistance. In summary, the data provide strong circumstantial evidence, that PD-0184264 elicits its antibacterial action by inhibition of the bacterial kinase PknB.

MRSA strain USA300 = experiment: as above; format: cell-based, Staphylococcus aureus; details: 20 μM over night, then 42° C. for 6 h, MRSA USA300, vs solvent
Protocol: as §2

A549 cells = experiment: A549 cell viability (trypan blue) and LDH release; format: cell-based, human; details: 1-100 μM, 24 and 48 hours
Protocol: To rule out that the reduction in viral and intracellular bacterial replication was a result of a cytotoxic effect of PD-0184264 on A549 cells, cell viability in presence of increasing concentrations was monitored for 24 and 48 hours. Additionally, a LDH-Assay was performed to determine membrane rupture due to inhibitor treatment. […] A549 cells were treated for 24 (as shown in FIGS. 15A and C) or 48 (as shown in FIGS. 15B and D) hours with increasing concentrations of PD-0184264 (1, 5, 10, 20, 50 or 100 μM). After the incubation times, supernatants were taken for measurement of LDH release (shown in FIGS. 15C, D) using the CytoSelect LDH Cytotoxicity Assay Kit according to the manufacturer's instructions. Additionally, viable cells were counted by staining with trypan blue. Cell viability was normalized to DMSO-treated cells and is shown as % viability. […] Statistical significance was calculated by one-way ANOVA followed by Dunnett's multiple comparisons test (*p<0.05; **p<0.01; […]***p<0.001).

S. aureus 6850 = experiment: Time-of-addition assay, bacterial titers at 0, 3 and 6 h, then medium exchange; format: cell-based, Staphylococcus aureus

## O=C(O)c1ccc(F)c(F)c1Nc1ccc(I)cc1Cl [PD-0184264, 2-(2-chloro-4-iodophenylamino)-N-3,4-difluoro benzoic acid]
[1]; 150 mg/kg per os application
  drug in plasma at eight hours: still a high concentration
[1]; mouse, plasma, iv, male NMRI mice, route of this value not stated (75 mg/kg i.v. / 150 mg/kg per os)
  AUC: 1950 µg·h/mL
[2]
  reduction of progeny virus: almost no reduction
  reduction of virus titer: 98.87±0.03% and 91.50±2.08% and 58.97±4.45%
[2]; CI-1040 value from Haasbach et al. 2017
  fold higher EC50 value compared to the EC50 value of CI-1040: 31 fold
[2]; Influenza A virus, H1N1, RB1 on A549 cells, FIG. 17B
  EC50: 804 nM
[2]; against RB1 on A549 cells
  S.I. (selectivity index): 1960
[2]; in vitro, A549
  fold higher concentration needed to achieve similar reduction of progeny influenza virus as 10 μM CI-1040: ~10 fold
[3]
  sensitivity of growth (OD600, bacterial titers): sensitive
[4]
  sensitivity of growth (OD600, bacterial titers): sensitive
S. aureus strain 6850
  bacterial growth under heat stress (bacterial titers): strongly impaired
MRSA strain USA300
  bacterial growth under heat stress (bacterial titers): strongly impaired
A549 cells
  cell toxicity (cell viability, LDH release): does not induce cell toxicity
S. aureus 6850; S. aureus 6850, 3 h and 6 h post inoculation
  inhibition of bacterial growth, compared with U0126 and gentamicin (0.5 or 2 μg/ml): strongest inhibition of bacterial growth
S. aureus 6850; cultures further incubated without substances reached turbidity of solvent culture
  mode of antibacterial action after medium exchange: bacteriostatic rather than a bactericidal action
